Assays:
[1] = Redeposition of ghee onto coupons; settings: pH 11, 50° C., 1 g ghee in 600 g water, 10 minutes, FIG. 5
Method: Each coupon was new and conditioned by soaking in methyl alcohol for 30 seconds, then placed in 60° C. oven for 30 minutes. 600 g of 0 grain water was heated in a 1000 ml beaker to 50° C. The pH of the mixture was adjusted to 11 using NaOH. The chemistry was added to the solution and mixed for one minute. Additionally, 1 g of melted ghee was added to the solution and mixed for one minute. Three cleaned and weighed coupons were added using a coupon holder. After 10 minutes, the coupons were removed and dipped in DI water once. Coupons were left to dry overnight and weighed the following day. […] Therefore, after the soil is removed it is less likely to be redeposited onto the surface again.

[2] = Toxicity screening of surfactants by derived no-effect level (DNEL); settings: derived from toxicological studies supplied by the surfactant manufacturer, with assessment factors
Description: As referred to herein, a DNEL is substance specific and is commonly used as a health risk-based threshold in toxicological risk assessments. As a point of departure for the derivation of a DNEL varying toxicological studies are used, supplied by the surfactant manufacturer. […] Depending on evaluated endpoint and different parameters of these studies certain assessment factors are applied to derivate the DNEL. Used herein are scientifically justified and publicly recognized methods (e.g. by EFSA or ECETOC) for the determination of these assessment factors.
Surfactants were screened for lower toxicity levels.

Substance | redeposition of butterfat onto coupons [1] | DNEL (derived no-effect level) [2]
Alkyl polyglucosides [APGs] | helps prevent a larger amount of butterfat from being deposited | –
Nonylphenol ethoxylate [NPE] | – | less than 1

From US20250188387A1, “LOW TOXICITY SURFACTANT BOOSTER COMPOSITIONS FOR FILTRATION MEMBRANE CLEANING APPLICATIONS” (ECOLAB USA INC., priority 2023, published 2025)
